# Test results reported in patent US11731977B2, “SGC stimulators” (Cyclerion Therapeutics, Inc., priority 2016, dated 2023).
# Target: T1, sGC enzyme (Homo sapiens, UniProt Q02108+Q02153)
# T1 construct: sGC enzyme activity values in HEK cells, determined by the GloSensor assay; host or cells: HEK293 cells stably expressing GloSensor 40F cGMP biosensor
# T1 sequence (Q02153 1-619): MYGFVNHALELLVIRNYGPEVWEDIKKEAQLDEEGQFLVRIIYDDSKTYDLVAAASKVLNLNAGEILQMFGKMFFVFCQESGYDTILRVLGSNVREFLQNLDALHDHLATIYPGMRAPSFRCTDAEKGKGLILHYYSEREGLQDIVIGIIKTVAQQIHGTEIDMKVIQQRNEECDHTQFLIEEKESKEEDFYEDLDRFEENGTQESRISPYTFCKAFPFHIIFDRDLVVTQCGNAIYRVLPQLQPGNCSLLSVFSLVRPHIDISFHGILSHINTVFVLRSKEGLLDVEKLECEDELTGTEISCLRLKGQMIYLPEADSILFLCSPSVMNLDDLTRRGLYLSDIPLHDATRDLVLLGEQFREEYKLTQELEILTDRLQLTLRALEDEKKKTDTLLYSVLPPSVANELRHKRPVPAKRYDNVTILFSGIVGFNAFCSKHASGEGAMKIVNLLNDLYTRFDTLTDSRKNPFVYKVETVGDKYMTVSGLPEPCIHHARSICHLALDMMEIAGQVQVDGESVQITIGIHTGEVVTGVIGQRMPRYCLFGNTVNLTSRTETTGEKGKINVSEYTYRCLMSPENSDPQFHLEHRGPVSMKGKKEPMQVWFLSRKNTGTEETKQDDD
# T1 sequence (Q02108 1-690): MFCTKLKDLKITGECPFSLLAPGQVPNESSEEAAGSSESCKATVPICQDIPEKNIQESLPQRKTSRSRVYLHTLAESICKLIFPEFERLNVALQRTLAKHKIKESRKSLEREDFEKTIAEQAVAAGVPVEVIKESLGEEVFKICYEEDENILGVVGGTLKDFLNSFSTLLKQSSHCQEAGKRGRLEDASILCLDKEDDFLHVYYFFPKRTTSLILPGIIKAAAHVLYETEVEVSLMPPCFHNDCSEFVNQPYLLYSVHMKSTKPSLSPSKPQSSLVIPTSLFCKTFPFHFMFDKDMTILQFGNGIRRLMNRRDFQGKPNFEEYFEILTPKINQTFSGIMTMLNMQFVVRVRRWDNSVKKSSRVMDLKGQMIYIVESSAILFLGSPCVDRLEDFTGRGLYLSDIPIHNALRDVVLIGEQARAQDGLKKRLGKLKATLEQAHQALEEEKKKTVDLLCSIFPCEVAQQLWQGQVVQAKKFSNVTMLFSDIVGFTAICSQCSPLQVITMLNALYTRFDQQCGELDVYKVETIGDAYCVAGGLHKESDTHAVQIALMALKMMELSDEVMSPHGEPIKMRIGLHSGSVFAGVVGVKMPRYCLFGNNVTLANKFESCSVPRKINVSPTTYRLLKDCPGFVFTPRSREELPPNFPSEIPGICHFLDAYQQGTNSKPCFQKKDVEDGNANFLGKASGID
# Assay: cGMP GloSensor cell-based assay, 384-well format (Example 2a)
# Settings: HEK293 GloSensor 40F cGMP cells; 10 μM DETA-NONOate; 50% of high control (30 μM Compound Y); read-out: Abs EC50
# Procedure, shortened: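 HEK293 cells expressing GloSensor 40F cGMP biosensor, pre-equilibrated with GloSensor substrate 90 min at 25 °C, then given compound (final 0.029–30000 nM) plus 10 μM DETA-NONOate; luminescence read after 55 min at room temperature. Normalized to 1% DMSO (low) and 30 μM Compound Y (high); Abs EC50 from 4-parameter fit, n=2, geometric mean.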
row,Structure (SMILES),EC50 [nM]
1,"Fc1cccc(Cc2nc(-c3nc(C(F)(F)F)n[nH]3)cn3ccnc23)c1 [Compound I-2, 8-(3-Fluorobenzyl)-6-(3-(trifluoromethyl)-1H-1,2,4-triazol-5-yl)imidazo[1,2-a]pyrazine]",≤ 100
2,"Fc1cccc(Cc2nc(-c3nc(C(F)F)n[nH]3)cn3ccnc23)c1 [Compound I-3, 6-(3-(Difluoromethyl)-1H-1,2,4-triazol-5-yl)-8-(3-fluorobenzyl)imidazo[1,2-a]pyrazine]",100 to 1000
3,"Fc1cccc(Cc2nc(-c3nc(C(F)F)n[nH]3)cn3ccnc23)c1F [Compound I-11, 8-(2,3-Difluorobenzyl)-6-(3-(difluoromethyl)-1H-1,2,4-triazol-5-yl)imidazo[1,2-a]pyrazine]",100 to 1000
4,"Fc1ccccc1Cc1nc(-c2nc(C(F)F)n[nH]2)cn2ccnc12 [Compound I-14, 8-(2-Fluorobenzyl)-6-(3-(difluoromethyl)-1H-1,2,4-triazol-5-yl)imidazo[1,2-a]pyrazine]",≤ 100
5,"Fc1ccccc1Cc1nc(-c2nc(C(F)(F)F)n[nH]2)cn2ncnc12 [Compound I-16, 8-(2-Fluorobenzyl)-6-(3-(trifluoromethyl)-1H-1,2,4-triazol-5-yl)-[1,2,4]triazolo[1,5-a]pyrazine]",≤ 100

# Further lines, results first:
row,EC50 [nM],Structure (SMILES)
1,≤ 100,"Fc1ccccc1Cc1nc(-c2nc(C(F)(F)F)n[nH]2)cn2ccnc12 [Compound I-1, 8-(2-fluorobenzyl)-6-(3-(trifluoromethyl)-1H-1,2,4-triazol-5-yl)imidazo[1,2-a]pyrazine]"
2,≤ 100,"Fc1cccc(Cc2nc(-c3nc(C(F)(F)F)n[nH]3)cn3ccnc23)c1F [Compound I-10, 8-(2,3-Difluorobenzyl)-6-(3-(trifluoromethyl)-1H-1,2,4-triazol-5-yl)imidazo[1,2-a]pyrazine]"
